Data: ChEMBL document CHEMBL1201862, “PubChem BioAssay data set” (2004)
The source made the active and inactive calls.

Assays:
Estrogen receptor = target: T1, Estrogen receptor (Homo sapiens, UniProt P03372); assay: ERα coactivator recruitment enhancers – biochemical, TR-FRET, ERα LBD, dose response (AID 737)
T1 sequence (P03372 whole entry): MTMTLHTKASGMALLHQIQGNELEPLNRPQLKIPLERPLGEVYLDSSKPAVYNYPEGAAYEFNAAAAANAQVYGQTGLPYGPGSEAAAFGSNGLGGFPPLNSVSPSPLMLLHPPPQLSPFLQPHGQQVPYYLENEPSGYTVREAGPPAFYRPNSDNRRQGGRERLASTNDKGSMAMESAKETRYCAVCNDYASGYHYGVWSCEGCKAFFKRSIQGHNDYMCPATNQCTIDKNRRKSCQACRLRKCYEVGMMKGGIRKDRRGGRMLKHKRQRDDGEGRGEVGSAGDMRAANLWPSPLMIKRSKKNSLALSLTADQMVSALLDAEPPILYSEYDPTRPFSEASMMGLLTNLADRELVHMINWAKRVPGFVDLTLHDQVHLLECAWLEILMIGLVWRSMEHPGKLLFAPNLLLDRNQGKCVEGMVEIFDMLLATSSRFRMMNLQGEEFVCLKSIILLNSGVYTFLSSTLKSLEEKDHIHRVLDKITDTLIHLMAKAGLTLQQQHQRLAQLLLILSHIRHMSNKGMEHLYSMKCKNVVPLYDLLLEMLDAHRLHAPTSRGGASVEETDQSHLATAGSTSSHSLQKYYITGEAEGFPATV

[1] = target: T2, Heat shock factor protein 1 (Mus musculus, UniProt P38532); assay: decrease of HSF1-responsive luciferase luminescence – cell-based, NIH3T3, dose retest, confirmation (AID 2382); assay type: functional;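 note: NIH3T3 fibroblasts with HSF1-driven luciferase reporter stressed by proteasome inhibitor MG132; luminescence from HSF1-driven luciferase expression after 8 hours of MG132 stress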
T2 sequence (P38532 whole entry): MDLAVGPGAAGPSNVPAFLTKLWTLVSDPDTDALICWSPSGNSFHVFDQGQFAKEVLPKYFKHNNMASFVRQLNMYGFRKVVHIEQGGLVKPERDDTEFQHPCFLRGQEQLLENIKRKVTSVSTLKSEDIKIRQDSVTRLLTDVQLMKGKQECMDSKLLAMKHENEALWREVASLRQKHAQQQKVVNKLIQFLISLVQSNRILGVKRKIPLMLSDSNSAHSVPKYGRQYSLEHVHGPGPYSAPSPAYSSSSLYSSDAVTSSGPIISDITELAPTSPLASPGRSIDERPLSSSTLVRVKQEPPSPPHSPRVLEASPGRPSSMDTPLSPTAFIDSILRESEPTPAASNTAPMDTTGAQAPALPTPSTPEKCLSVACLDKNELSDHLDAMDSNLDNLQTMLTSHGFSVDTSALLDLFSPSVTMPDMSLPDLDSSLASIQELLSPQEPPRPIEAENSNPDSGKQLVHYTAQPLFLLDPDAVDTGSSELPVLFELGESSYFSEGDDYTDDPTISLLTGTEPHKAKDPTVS

NS3 = NS3 (Hepatitis C virus, UniProt A3EZJ3); assay: PubChem AID 2173; parameters: species or system Hepacivirus hominis
[2] = target: 26S proteasome non-ATPase regulatory subunit 14 (Homo sapiens, UniProt O00487); assay: inhibition of proteasome subunit RPN11 – biochemical, fluorescence polarization, uHTS hits, confirmation (AID 602368); assay type: functional
[3] = target: 72 kDa type IV collagenase (Homo sapiens, UniProt P08253); assay: Dose Response validation of uHTS RPN11 inhibitor hits using a MMP-2 Fluorescence assay.; assay type: functional
[4] = NIH-3T3 fibroblast cytotoxicity, dose response, cytotoxicity control, cell-based, fluorescence, Alamar Blue, secondary assay (AID 2327); assay type: functional;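 note: NIH-3T3 mouse fibroblasts cultured with fluconazole at 8 µg/mL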
[5] = fluconazole-exposed Candida albicans growth modulators – fluorescence, retest, confirmation (AID 2467); assay type: functional, cell-based
Prothrombin = Prothrombin (Bos taurus, UniProt P00735); assay: thrombin protease inhibitors – biochemical, fluorescence polarization, uHTS hits, dose response (AID 602369); assay type: functional
Ion channel NompC = Ion channel NompC (Danio rerio, UniProt Q7T1G6); assay: Fluorescence counterscreen assay for TRPML3 agonists: dose response cell-based high-throughput screening assay to identify agonists of the transient receptor potential channel N1 (TRPN1). [Related pubchem assays: 1526, 1424, 1448 ]; assay type: functional
Mucolipin-3 = Mucolipin-3 (Homo sapiens, UniProt Q8TDD5); assay: Dose response cell-based high-throughput screening assay for agonists of the transient receptor potential channel ML3 (TRPML3). [Related pubchem assays: 1526, 1424, 1448 ]; assay type: functional
[6] = target: T3, Alkaline phosphatase, tissue-nonspecific isozyme (Homo sapiens, UniProt P05186)
T3 sequence (P05186 whole entry): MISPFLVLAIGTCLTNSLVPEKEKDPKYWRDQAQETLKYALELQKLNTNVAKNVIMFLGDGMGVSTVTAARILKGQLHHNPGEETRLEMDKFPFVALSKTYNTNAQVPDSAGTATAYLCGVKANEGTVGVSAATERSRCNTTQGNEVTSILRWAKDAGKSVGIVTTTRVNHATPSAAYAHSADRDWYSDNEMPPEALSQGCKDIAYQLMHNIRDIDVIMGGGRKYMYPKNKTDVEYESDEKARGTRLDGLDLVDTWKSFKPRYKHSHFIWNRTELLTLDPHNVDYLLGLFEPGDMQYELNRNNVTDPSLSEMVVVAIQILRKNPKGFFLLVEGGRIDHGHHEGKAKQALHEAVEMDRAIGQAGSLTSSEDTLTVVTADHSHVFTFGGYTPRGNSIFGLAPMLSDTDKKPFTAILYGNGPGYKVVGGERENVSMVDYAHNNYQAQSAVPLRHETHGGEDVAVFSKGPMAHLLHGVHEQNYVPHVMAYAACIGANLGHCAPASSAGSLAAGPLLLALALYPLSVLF

Aspartyl aminopeptidase = Aspartyl aminopeptidase (Plasmodium falciparum 3D7, UniProt Q8I2J3)
Procathepsin L = Procathepsin L (Homo sapiens, UniProt P07711)
Aminopeptidase N = target: T4, Aminopeptidase N (Plasmodium falciparum FcB1/Columbia, UniProt O96935); assay: malaria alanyl aminopeptidase activity blockers – biochemical, fluorogenic H-Leu-NHMec substrate, 1536-well (AID 1445); parameters: species or system Plasmodium falciparum 3D7, 3D7
T4 sequence (O96935 whole entry): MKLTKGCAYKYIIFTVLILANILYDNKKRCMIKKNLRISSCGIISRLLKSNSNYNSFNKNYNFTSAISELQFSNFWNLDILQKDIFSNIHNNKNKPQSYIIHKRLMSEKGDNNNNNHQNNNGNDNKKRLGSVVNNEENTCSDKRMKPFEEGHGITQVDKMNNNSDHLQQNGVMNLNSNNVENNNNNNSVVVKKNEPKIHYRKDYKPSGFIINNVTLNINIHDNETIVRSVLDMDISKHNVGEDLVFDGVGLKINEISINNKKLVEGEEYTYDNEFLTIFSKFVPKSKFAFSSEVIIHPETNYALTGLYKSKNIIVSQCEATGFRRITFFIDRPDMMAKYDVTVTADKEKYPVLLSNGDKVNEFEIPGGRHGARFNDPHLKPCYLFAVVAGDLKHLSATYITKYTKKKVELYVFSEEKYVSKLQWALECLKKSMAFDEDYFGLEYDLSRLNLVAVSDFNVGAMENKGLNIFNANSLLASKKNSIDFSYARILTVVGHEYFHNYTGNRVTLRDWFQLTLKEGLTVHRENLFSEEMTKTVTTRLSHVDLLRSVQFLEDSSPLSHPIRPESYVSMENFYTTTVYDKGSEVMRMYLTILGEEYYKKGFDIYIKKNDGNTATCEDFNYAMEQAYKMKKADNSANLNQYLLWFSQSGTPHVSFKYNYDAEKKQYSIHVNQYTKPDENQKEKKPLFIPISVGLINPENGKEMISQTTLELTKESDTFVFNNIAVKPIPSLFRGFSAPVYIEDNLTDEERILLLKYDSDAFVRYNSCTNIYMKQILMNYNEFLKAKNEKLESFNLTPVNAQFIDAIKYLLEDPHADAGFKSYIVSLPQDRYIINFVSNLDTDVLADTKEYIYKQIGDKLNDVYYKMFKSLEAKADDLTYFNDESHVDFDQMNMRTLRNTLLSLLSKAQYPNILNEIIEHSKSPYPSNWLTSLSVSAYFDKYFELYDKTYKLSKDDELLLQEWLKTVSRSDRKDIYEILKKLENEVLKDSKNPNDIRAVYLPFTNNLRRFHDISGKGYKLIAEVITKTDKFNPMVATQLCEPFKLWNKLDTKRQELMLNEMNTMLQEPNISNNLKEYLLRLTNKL

[7] = antiviral protection against BTV-induced cell death – arbovirus, BSR cells, confirmation (AID 1250); assay type: functional;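 note: protection from viral cytopathic effect measured as cell viability by ATP luminescence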
[8] = Luminescence-based cell-based high throughput dose response assay to identify activators of the DAF-12 from the parasite S. stercoralis (ssDAF-12).; assay type: functional
[9] = target: T5, Oxysterols receptor LXR-beta (Homo sapiens, UniProt P55055); assay: LXR agonists, Gal4 luciferase reporter, dose response, counter-screen for ssDAF-12 agonist project, cell-based, luminescence, HEK293, S. stercoralis campaign (AID 720737); assay type: functional; conditions: read-out: IC50 (the source's name)
T5 sequence (P55055 whole entry): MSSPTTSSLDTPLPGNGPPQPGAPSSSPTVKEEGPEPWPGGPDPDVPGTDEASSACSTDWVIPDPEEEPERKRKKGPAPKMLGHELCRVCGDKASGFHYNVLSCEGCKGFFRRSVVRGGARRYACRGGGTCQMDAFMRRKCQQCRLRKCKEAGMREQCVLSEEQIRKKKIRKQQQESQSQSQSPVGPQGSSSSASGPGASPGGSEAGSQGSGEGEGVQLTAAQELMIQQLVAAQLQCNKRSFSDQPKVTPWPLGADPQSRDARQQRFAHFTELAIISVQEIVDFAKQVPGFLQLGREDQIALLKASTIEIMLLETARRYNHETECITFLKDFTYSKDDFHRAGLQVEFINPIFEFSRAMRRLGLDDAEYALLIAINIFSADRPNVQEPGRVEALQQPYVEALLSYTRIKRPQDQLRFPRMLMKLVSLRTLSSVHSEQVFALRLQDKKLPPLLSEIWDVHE

[10] = mitochondrial function rescue without frataxin homolog – Friedreich's ataxia, plus single-dose screen, dose response (AID 1465); assay type: functional;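 note: yeast depleted of Yfh1p frataxin homolog grown on glycerol needing respiration; WST-1 tetrazolium dye reduction as measure of cellular dehydrogenase metabolic activity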
[11] = Counterscreen for IDE inhibitors: Luminescence-based cell-based high throughput dose response assay to identify compounds that are cytotoxic to HEK cells. [Related pubchem assays: 434962 (Primary screen (IDE inhibitors in singlicate)), 449730 (Counterscreen (Cytotoxicity in triplicate)), 435028 (Confirmation (IDE inhibitors in triplicate)) …; assay type: functional; conditions: HEK293
Insulin-degrading enzyme = target: T6, Insulin-degrading enzyme (Homo sapiens, UniProt P14735); assay: Dose Response: Fluorescence polarization-based cell-based high throughput dose response assay for inhibitors of insulin-degrading enzyme (IDE). [Related pubchem assays: 434962 (Primary screen (IDE inhibitors in singlicate)), 449730 (Counterscreen (Cytotoxicity in triplicate)), 435028 (Confirmation (IDE inhibitors in triplicate)), 434984 (Summary …; assay type: functional
T6 sequence (P14735 whole entry): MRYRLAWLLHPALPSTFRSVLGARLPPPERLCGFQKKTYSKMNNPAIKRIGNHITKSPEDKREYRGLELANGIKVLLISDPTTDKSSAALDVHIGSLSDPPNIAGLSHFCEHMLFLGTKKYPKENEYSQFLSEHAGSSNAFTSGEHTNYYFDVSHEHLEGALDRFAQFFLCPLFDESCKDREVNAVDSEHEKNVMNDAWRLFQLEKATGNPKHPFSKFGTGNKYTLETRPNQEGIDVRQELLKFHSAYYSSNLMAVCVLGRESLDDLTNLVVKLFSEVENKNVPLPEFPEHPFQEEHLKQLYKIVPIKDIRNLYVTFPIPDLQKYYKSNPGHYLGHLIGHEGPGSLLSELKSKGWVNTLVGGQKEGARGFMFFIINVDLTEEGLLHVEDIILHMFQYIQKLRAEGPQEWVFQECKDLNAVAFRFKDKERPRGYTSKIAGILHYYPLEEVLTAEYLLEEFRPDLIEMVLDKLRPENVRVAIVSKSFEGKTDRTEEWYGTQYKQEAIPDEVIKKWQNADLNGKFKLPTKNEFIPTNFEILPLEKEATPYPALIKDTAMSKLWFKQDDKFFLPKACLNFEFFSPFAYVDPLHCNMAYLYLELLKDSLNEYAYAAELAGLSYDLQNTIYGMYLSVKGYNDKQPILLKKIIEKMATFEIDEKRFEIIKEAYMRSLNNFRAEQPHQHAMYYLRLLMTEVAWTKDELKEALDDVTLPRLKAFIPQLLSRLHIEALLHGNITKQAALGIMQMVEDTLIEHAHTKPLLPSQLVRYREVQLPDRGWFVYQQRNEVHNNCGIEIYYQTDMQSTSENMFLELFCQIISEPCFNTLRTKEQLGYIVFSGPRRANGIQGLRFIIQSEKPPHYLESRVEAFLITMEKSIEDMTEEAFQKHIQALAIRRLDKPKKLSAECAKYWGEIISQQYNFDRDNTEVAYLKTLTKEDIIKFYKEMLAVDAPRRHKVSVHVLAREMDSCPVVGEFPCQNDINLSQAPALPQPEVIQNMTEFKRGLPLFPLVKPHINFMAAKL

Sequence of 72 kDa type IV collagenase (P08253 whole entry): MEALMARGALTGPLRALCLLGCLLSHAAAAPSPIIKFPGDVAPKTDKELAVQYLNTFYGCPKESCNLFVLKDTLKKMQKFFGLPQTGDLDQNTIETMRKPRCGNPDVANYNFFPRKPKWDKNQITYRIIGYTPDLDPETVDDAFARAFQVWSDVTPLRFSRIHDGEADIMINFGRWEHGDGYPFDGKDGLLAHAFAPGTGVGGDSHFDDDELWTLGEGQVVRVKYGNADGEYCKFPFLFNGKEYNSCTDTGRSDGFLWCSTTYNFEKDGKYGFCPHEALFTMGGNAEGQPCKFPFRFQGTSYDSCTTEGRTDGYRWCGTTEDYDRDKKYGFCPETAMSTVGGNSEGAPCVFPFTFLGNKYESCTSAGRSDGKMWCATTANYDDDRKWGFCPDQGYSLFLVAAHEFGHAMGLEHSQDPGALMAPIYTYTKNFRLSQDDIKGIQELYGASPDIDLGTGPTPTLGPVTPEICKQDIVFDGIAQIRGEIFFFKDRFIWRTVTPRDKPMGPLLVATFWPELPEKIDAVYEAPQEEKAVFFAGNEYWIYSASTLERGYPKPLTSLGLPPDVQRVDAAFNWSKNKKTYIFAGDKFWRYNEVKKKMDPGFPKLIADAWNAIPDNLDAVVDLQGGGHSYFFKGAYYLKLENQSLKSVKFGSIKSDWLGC
Sequence of Aspartyl aminopeptidase (Q8I2J3 whole entry): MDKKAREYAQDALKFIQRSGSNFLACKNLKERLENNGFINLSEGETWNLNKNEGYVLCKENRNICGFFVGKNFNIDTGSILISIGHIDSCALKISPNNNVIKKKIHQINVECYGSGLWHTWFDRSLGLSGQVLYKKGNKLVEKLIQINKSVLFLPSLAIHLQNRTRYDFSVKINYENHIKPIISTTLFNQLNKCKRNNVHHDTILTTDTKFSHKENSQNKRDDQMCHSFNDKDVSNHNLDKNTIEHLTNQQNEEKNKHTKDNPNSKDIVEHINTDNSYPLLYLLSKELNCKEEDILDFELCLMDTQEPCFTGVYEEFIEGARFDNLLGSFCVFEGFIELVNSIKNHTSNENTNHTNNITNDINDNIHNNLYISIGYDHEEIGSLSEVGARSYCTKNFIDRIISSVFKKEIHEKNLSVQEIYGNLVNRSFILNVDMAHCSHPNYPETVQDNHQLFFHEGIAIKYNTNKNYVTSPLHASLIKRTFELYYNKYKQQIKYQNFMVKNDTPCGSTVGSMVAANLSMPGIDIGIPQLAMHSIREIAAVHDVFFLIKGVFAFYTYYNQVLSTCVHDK
Sequence of NS3 (A3EZJ3 whole entry): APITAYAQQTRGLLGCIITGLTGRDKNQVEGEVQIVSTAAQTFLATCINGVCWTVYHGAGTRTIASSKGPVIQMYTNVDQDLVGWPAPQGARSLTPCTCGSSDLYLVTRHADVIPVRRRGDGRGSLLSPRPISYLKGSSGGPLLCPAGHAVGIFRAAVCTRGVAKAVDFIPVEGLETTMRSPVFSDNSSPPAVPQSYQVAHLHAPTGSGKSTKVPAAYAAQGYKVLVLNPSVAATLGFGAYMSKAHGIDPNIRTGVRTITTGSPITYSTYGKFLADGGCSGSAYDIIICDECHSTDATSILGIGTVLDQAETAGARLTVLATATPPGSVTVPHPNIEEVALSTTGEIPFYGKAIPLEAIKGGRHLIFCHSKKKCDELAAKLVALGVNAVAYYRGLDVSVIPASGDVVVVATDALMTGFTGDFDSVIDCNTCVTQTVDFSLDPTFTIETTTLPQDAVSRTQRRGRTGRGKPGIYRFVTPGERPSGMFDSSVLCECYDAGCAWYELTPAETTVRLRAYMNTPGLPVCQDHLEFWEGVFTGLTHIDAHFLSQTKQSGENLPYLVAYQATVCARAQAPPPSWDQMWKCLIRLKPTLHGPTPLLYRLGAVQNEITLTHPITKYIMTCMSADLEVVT
Sequence of Mucolipin-3 (Q8TDD5 whole entry): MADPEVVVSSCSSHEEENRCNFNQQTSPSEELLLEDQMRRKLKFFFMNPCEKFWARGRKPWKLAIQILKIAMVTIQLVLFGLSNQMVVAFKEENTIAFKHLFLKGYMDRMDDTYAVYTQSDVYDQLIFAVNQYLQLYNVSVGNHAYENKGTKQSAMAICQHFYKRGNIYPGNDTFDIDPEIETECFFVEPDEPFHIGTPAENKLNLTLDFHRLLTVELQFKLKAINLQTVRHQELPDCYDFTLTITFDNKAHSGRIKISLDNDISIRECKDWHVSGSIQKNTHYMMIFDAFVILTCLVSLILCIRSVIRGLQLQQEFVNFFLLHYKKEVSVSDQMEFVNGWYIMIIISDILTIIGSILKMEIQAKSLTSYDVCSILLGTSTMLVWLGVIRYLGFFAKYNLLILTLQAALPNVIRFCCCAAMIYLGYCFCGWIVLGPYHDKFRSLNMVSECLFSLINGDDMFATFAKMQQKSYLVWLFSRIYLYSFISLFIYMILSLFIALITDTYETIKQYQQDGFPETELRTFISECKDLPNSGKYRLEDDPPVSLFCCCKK
Sequence of 26S proteasome non-ATPase regulatory subunit 14 (O00487 whole entry): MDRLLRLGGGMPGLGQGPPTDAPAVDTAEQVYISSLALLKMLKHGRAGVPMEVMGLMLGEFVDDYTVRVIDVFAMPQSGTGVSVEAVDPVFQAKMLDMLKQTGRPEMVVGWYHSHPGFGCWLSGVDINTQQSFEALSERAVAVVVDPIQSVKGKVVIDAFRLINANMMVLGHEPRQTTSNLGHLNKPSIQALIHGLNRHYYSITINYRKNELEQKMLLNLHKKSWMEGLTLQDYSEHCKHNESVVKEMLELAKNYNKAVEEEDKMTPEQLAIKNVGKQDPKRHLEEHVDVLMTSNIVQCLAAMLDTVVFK
Sequence of Procathepsin L (P07711 whole entry): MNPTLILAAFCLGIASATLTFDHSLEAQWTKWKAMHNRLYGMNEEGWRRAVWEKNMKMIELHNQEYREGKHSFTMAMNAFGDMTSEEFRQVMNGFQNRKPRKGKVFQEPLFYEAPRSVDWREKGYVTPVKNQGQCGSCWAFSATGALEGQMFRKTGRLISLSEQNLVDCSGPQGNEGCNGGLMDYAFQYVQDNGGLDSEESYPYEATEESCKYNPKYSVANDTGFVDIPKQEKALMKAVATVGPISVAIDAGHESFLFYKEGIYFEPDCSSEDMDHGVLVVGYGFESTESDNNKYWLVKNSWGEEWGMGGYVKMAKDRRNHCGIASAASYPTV
Sequence of Ion channel NompC (Q7T1G6 whole entry): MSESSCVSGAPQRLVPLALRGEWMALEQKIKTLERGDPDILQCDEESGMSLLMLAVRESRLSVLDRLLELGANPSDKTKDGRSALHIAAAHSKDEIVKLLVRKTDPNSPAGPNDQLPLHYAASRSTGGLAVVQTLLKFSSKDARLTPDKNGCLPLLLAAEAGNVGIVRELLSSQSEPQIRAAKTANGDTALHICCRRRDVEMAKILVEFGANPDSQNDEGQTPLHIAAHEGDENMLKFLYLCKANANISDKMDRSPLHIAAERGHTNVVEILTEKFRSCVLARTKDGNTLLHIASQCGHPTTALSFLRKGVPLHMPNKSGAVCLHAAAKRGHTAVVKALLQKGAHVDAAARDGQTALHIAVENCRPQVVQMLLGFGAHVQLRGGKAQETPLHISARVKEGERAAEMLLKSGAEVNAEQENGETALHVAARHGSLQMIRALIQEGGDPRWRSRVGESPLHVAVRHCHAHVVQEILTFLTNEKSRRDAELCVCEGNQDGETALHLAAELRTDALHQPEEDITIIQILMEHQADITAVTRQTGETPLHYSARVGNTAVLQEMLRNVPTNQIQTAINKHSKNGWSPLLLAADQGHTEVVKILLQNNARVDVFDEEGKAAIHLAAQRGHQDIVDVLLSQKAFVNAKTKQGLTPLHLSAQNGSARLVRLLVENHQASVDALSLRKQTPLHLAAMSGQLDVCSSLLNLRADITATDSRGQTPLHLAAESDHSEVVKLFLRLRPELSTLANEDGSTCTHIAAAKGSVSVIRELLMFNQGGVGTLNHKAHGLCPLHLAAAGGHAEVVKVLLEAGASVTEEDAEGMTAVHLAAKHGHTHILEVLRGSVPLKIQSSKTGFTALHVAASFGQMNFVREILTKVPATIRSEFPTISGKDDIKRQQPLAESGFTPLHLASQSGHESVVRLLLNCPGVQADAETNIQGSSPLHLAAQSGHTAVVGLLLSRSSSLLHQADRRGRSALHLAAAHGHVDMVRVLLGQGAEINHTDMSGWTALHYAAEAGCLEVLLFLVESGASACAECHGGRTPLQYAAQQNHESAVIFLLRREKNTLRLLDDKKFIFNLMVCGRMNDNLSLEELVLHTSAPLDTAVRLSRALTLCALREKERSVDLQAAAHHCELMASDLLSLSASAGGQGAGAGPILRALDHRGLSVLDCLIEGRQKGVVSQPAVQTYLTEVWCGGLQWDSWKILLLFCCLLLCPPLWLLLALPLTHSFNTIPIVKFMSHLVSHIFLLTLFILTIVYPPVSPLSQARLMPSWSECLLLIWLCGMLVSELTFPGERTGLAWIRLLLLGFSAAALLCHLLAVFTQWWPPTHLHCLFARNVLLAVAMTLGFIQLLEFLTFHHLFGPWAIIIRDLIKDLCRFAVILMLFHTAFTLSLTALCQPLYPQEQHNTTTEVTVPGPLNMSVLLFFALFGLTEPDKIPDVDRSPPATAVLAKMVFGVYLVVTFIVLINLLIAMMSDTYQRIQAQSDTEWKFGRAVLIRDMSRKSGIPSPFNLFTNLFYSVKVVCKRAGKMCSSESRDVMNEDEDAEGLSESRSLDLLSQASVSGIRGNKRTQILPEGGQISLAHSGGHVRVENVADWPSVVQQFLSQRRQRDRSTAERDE

Compound: COc1nnc(-c2ccc(C(=O)N3C[C@@H]4C[C@H](C3)c3cccc(=O)n3C4)cc2)c2ccccc12
- EC50 (Estrogen receptor): 15 µM (active)
- EC50 [1]: > 195 µM (not active)

Compound: O=C1NC(=S)N(CCC2=CCCCC2)C(=O)/C1=C/NNC(=O)c1ccccc1
- IC50 (NS3): 5.41 µM (active)
- IC50 [2]: 43.9 µM (active)
- IC50 [3]: > 100 µM (inactive)
- EC50 [4]: > 150 µM (inconclusive)
- EC50 [5]: > 38 µM (not active)
- IC50 (Prothrombin): 62.2 µM (active)

Compound: CCOC(=O)C(C)(C)N(Cc1cccc(C)c1)S(=O)(=O)c1cccc([N+](=O)[O-])c1
- EC50 (Ion channel NompC): > 29.9 µM (not active)
- EC50 (Mucolipin-3): > 29.9 µM (not active)

Compound: Cc1ccc(C(=O)NN=C(S)Nc2cccc3ccccc23)s1
- EC50 [6]: 62.6 µM (not active)

Compound: O=C(O)c1c[nH]nc1-n1cnnn1
- IC50 (Aspartyl aminopeptidase): 1.27 µM (active)
- IC50 (Procathepsin L): > 59.6 µM (not active)

Compound: Cc1ccc(C(=O)Nc2scc(-c3ccccc3)c2C(=O)O)o1
- IC50 (Aminopeptidase N): 68.4 µM (active)
- IC50 [7]: 34 µM (active)

Compound: N#C/C(=C\c1ccc(N2CCOCC2)o1)C(=O)NCC1CCCO1 (stereo not given)
- IC50 [8]: > 67.5 µM (inactive)
- EC50 [9]: > 67.5 µM (inactive)
- EC50 [10]: > 100 µM (active)
- IC50 [11]: > 55.7 µM (not active)
- IC50 (Insulin-degrading enzyme): 25.3 µM (not active)
